In ChEMBL document CHEMBL3244250, “Bisamidines of 2,6-diaminoanthraquinone as antiamebic agents” (J Med Chem, 1978) one finds Activity and minimal effective dose data, which are given here for 33 compounds.

Activity calls are given as the source filed them. The rule behind the calls is not given here.

In data set [1] the test system is Entamoeba histolytica. Description: Antimicrobial activity against Entamoeba histolytica NIH 200-mu hepatic forms infected in golden hamster assessed as survival rate administered qd for 5 days measured up to 14 days by microscopic analysis. Format: functional. The note with it: for minimal effective dose: read-out: MED.
Data set [2] has as its system Entamoeba histolytica. Put plainly: Antimicrobial activity against Entamoeba histolytica NIH 200-mu cecal forms infected in Wistar albino rat assessed as cure rate administered qd for 5 days by microscopic analysis. It counts as functional. The note with it: for minimal effective dose: 120 h, read-out: MED.
The next data set has as its system Salmonella typhimurium. Description: Mutagenic activity in Salmonella typhimurium by Ames test. It counts as toxicity, organism-based. Particulars: salmonella enterica subsp. enterica serovar typhimurium. Background: The Ames test uses bacterial strains that need an amino acid and regain growth without it when mutated back.
The subject of data set [3] is Rattus norvegicus. Put plainly: Toxicity in Wistar albino rat assessed as general listlessness up to 150 mg/kg administered qd for 5 days. Format: organism-based. Set-up: dose 150 mg/kg. Particulars: in vivo, 120 h.
The subject of data set [4] is Rattus norvegicus. Put plainly: Toxicity in Wistar albino rat assessed as reduction in water and food intake up to 150 mg/kg administered qd for 5 days. It counts as organism-based. Set-up: dose 150 mg/kg. Particulars: in vivo, 120 h.
The subject of data set [5] is Syrian golden hamster. Description: Toxicity in golden hamster assessed as general listlessness up to 150 mg/kg administered qd for 5 days. It counts as organism-based, Mesocricetus auratus. Set-up: dose 150 mg/kg. Particulars: in vivo, 120 h.
For data set [6], the system named is Syrian golden hamster. Put plainly: Toxicity in golden hamster assessed as reduction in water and food intake up to 150 mg/kg administered qd for 5 days. Particulars: in vivo, 120 h. It counts as organism-based, Mesocricetus auratus. Set-up: dose 150 mg/kg.
For data set [7], the system named is Syrian golden hamster. Description: Toxicity in golden hamster assessed as reduction in water and food intake administered qd for 5 days. Format: organism-based, Mesocricetus auratus. Particulars: in vivo, 120 h.
Data set [8] has as its system Syrian golden hamster. Put plainly: Toxicity in golden hamster assessed as general listlessness administered qd for 5 days. Format: organism-based, Mesocricetus auratus. Particulars: in vivo, 120 h.
In data set [9] the test system is Rattus norvegicus. Put plainly: Toxicity in Wistar albino rat assessed as general listlessness administered qd for 5 days. Format: organism-based. The note with it: in vivo, 120 h.
Data set [10] concerns Rattus norvegicus. Description: Toxicity in Wistar albino rat assessed as reduction in water and food intake administered qd for 5 days. Format: organism-based. The note with it: in vivo, 120 h.

Consider `CN(C)/C=N\c1cccc2c1C(=O)c1cccc(/N=C\N(C)C)c1C2=O`, for which the outcome in the data set with Entamoeba histolytica [1] and in the data set on Entamoeba histolytica [2] was inactive.

Consider `CN(C)/C(=N/c1ccc2c(c1)C(=O)c1ccc(/N=C(\C3CC3)N(C)C)cc1C2=O)C1CC1`, for which the figures for the minimal effective dose in the data set with Entamoeba histolytica [1] and in the data set with Entamoeba histolytica [2] were 50 mg/kg and 10 mg/kg, respectively. Further, the Activity result in the data set on Salmonella typhimurium is reported as “Non-toxic”.

On to `CCS(=O)(=O)CCn1c([N+](=O)[O-])cnc1C` [TINIDAZOLE], for which the minimal effective dose came to 25 mg/kg with Entamoeba histolytica [1] and 5 mg/kg in the data set with Entamoeba histolytica [2].

Regarding `CN/C(C)=N/c1ccc2c(c1)C(=O)c1ccc(/N=C(\C)NC)cc1C2=O`, the Activity entry with Rattus norvegicus [3], in the data set with Rattus norvegicus [4], in the data set with Syrian golden hamster [5] and in the data set on Syrian golden hamster [6] was “Non-toxic” each time. The outcome in the data set with Entamoeba histolytica [1] was inactive. Further, the minimal effective dose in the data set on Entamoeba histolytica [2] was found to be 10 mg/kg.

In the case of `CCCCN(C)/C(CC)=N/c1ccc2c(c1)C(=O)c1ccc(/N=C(\CC)N(C)CCCC)cc1C2=O`, the Activity entry in the data set with Rattus norvegicus [3], in the data set on Rattus norvegicus [4], with Syrian golden hamster [5] and with Syrian golden hamster [6] was “Non-toxic” in each case. Moreover, the results for the minimal effective dose with Entamoeba histolytica [1] and in the data set on Entamoeba histolytica [2] were 50 mg/kg and 20 mg/kg, respectively.

`Cc1ncc([N+](=O)[O-])n1CCO` [METRONIDAZOLE]: the minimal effective dose in the data set with Entamoeba histolytica [1] and with Entamoeba histolytica [2] was 10 mg/kg in each case.

`CCC/C(=N\c1ccc2c(c1)C(=O)c1ccc(/N=C(\CCC)N(C)C)cc1C2=O)N(C)C`: the results for the minimal effective dose in the data set on Entamoeba histolytica [1] and in the data set with Entamoeba histolytica [2] were 50 mg/kg and 20 mg/kg, respectively.

For the compound `CCCCCCCCN(C)/C=N/c1ccc2c(c1)C(=O)c1ccc(/N=C/N(C)CCCCCCCC)cc1C2=O`, the Activity entry in the data set on Syrian golden hamster [7], in the data set on Syrian golden hamster [8], in the data set with Rattus norvegicus [9] and with Rattus norvegicus [10] was “Toxic” each time. For the same compound, in the data set on Entamoeba histolytica [1], the result was inactive. The minimal effective dose in the data set on Entamoeba histolytica [2] came to 50 mg/kg.

Regarding `CN(C)/C(=N/c1ccc2c(c1)C(=O)c1ccc(/N=C(\C3CCC3)N(C)C)cc1C2=O)C1CCC1`, the values for the minimal effective dose in the data set on Entamoeba histolytica [1] and in the data set on Entamoeba histolytica [2] were 50 mg/kg and 20 mg/kg, respectively. Also, the Activity entry in the data set with Salmonella typhimurium is listed as “Non-toxic”.

As to `CCN(CC)/C(=N/c1ccc2c(c1)C(=O)c1ccc(/N=C(/N(CC)CC)C(C)(C)C)cc1C2=O)C(C)(C)C`, the values for the minimal effective dose with Entamoeba histolytica [1] and with Entamoeba histolytica [2] were 50 mg/kg and 20 mg/kg, respectively.

As to `CC(C)N(/C=N/c1ccc2c(c1)C(=O)c1ccc(/N=C/N(C(C)C)C(C)C)cc1C2=O)C(C)C`, the Activity result in the data set with Syrian golden hamster [7], with Syrian golden hamster [8], in the data set with Rattus norvegicus [9] and in the data set on Rattus norvegicus [10] was “Toxic” throughout. Also, the minimal effective dose in the data set on Entamoeba histolytica [1] turned out to be 100 mg/kg; in the data set with Entamoeba histolytica [2], 20 mg/kg.

Consider `CCN(C(C)=O)/C(C)=N/c1ccc2c(c1)C(=O)c1ccc(/N=C(\C)N(CC)C(C)=O)cc1C2=O`, for which the Activity result in the data set on Rattus norvegicus [3], with Rattus norvegicus [4], in the data set on Syrian golden hamster [5] and in the data set with Syrian golden hamster [6] was “Non-toxic” in each case. The result with Entamoeba histolytica [1] and with Entamoeba histolytica [2] was inactive.

For the compound `CN(C)/C(=N/c1ccc2c(c1)C(=O)c1ccc(/N=C(\c3ccc(Cl)cc3)N(C)C)cc1C2=O)c1ccc(Cl)cc1`, the minimal effective dose with Entamoeba histolytica [1] amounted to 50 mg/kg; with Entamoeba histolytica [2] it was 20 mg/kg. For the same compound, the Activity entry with Salmonella typhimurium is on record as “Non-toxic”.

As for `O=C1c2ccc(/N=C(\c3ccccc3)N3CCCCC3)cc2C(=O)c2ccc(/N=C(\c3ccccc3)N3CCCCC3)cc21`, the result with Entamoeba histolytica [1] was inactive. Also, the minimal effective dose with Entamoeba histolytica [2] was 10 mg/kg.

As for `CCN(CC)/C(C)=N\c1ccc(/N=C(/C)N(CC)CC)c2c1C(=O)c1ccccc1C2=O`, the outcome with Entamoeba histolytica [1] and in the data set on Entamoeba histolytica [2] was inactive.

`CCN(CC)/C(=N/c1ccc2c(c1)C(=O)c1ccc(/N=C(\C3CC3)N(CC)CC)cc1C2=O)C1CC1`: in the data set with Entamoeba histolytica [1], the outcome was inactive. For the same compound, the minimal effective dose in the data set on Entamoeba histolytica [2] was found to be 20 mg/kg.

As to `C/C(=N\c1ccc2c(c1)C(=O)c1ccc(/N=C(\C)N(C)C)cc1C2=O)N(C)C`, the Activity entry with Rattus norvegicus [3], with Salmonella typhimurium, in the data set with Rattus norvegicus [4], in the data set on Syrian golden hamster [5] and in the data set with Syrian golden hamster [6] was “Non-toxic” in each case. Further, the minimal effective dose amounted to 2.5 mg/kg with Entamoeba histolytica [1] and 5 mg/kg in the data set on Entamoeba histolytica [2].

In the case of `CC/C(=N\c1ccc2c(c1)C(=O)c1ccc(/N=C(\CC)N3CCN(C)CC3)cc1C2=O)N1CCN(C)CC1`, the Activity entry in the data set on Rattus norvegicus [3], with Rattus norvegicus [4], in the data set with Syrian golden hamster [5] and in the data set on Syrian golden hamster [6] was “Non-toxic” throughout. The result with Entamoeba histolytica [1] was inactive. Further, the minimal effective dose with Entamoeba histolytica [2] amounted to 20 mg/kg.

As to `O=C1c2ccc(/N=C/N3CCCCC3)cc2C(=O)c2ccc(/N=C/N3CCCCC3)cc21`, the Activity result in the data set on Syrian golden hamster [7], with Syrian golden hamster [8], in the data set with Rattus norvegicus [9] and in the data set on Rattus norvegicus [10] was “Toxic” in each case. The values for the minimal effective dose with Entamoeba histolytica [1] and in the data set with Entamoeba histolytica [2] were 100 mg/kg and 20 mg/kg, respectively.

As to `C/C(=N/c1cccc2c1C(=O)c1cccc(/N=C(/C)N(C)C)c1C2=O)N(C)C`, the outcome in the data set with Entamoeba histolytica [1] and with Entamoeba histolytica [2] was inactive.

Take `C/C(=N\c1ccc2c(c1)C(=O)c1ccc(/N=C(\C)N3CCCCC3)cc1C2=O)N1CCCCC1`: the Activity result in the data set on Rattus norvegicus [3], in the data set on Rattus norvegicus [4], in the data set on Syrian golden hamster [5] and with Syrian golden hamster [6] was “Non-toxic” in each case. For the same compound, the values for the minimal effective dose with Entamoeba histolytica [1] and in the data set with Entamoeba histolytica [2] were 100 mg/kg and 50 mg/kg, respectively.

Take `O=C1c2ccc(N/C3=N/CCCCCC3)cc2C(=O)c2ccc(N/C3=N/CCCCCC3)cc21`: the Activity entry with Rattus norvegicus [3], in the data set on Rattus norvegicus [4], in the data set on Syrian golden hamster [5] and in the data set with Syrian golden hamster [6] was “Non-toxic” in each case. Besides, the result with Entamoeba histolytica [1] was inactive. Further, the minimal effective dose in the data set with Entamoeba histolytica [2] is 20 mg/kg.

Consider `CCN/C(C)=N/c1ccc2c(c1)C(=O)c1ccc(/N=C(\C)NCC)cc1C2=O`, for which the Activity entry in the data set on Rattus norvegicus [3], with Rattus norvegicus [4], in the data set with Syrian golden hamster [5] and in the data set on Syrian golden hamster [6] was “Non-toxic” in each case. For the same compound, the result with Entamoeba histolytica [1] was inactive. Moreover, in the data set on Entamoeba histolytica [2], the minimal effective dose worked out at 10 mg/kg.

Regarding `CCN(CC)/C(C)=N/c1ccc2c(c1)C(=O)c1ccc(/N=C(\C)N(CC)CC)cc1C2=O`, the Activity result in the data set on Rattus norvegicus [3], with Salmonella typhimurium, with Rattus norvegicus [4], in the data set with Syrian golden hamster [5] and in the data set on Syrian golden hamster [6] was “Non-toxic” each time. The results for the minimal effective dose in the data set on Entamoeba histolytica [1] and in the data set with Entamoeba histolytica [2] were 2.5 mg/kg and 10 mg/kg, respectively.

Consider `C/C(N)=N\c1ccc2c(c1)C(=O)c1ccc(/N=C(\C)N)cc1C2=O`, for which the Activity result in the data set with Rattus norvegicus [3], in the data set with Rattus norvegicus [4], in the data set on Syrian golden hamster [5] and with Syrian golden hamster [6] was “Non-toxic” each time. In addition, the outcome in the data set with Entamoeba histolytica [1] was inactive. For the same compound, in the data set on Entamoeba histolytica [2], the minimal effective dose amounted to 10 mg/kg.

Regarding `CN(C)/C=N/c1ccc2c(c1)C(=O)c1ccccc1C2=O`, the Activity entry in the data set on Syrian golden hamster [7], with Syrian golden hamster [8], with Rattus norvegicus [9] and with Rattus norvegicus [10] was “Toxic” in each case. Besides, the result with Entamoeba histolytica [1] and in the data set on Entamoeba histolytica [2] was inactive.

`CC/C(=N\c1ccc2c(c1)C(=O)c1ccc(/N=C(\CC)N(C)C)cc1C2=O)N(C)C`: the Activity entry in the data set with Rattus norvegicus [3], in the data set on Rattus norvegicus [4], in the data set on Syrian golden hamster [5] and in the data set with Syrian golden hamster [6] was “Non-toxic” in each case. The minimal effective dose with Entamoeba histolytica [1] was 2.5 mg/kg; in the data set with Entamoeba histolytica [2], 10 mg/kg.

`O=[N+]([O-])c1cncn1CCN1CCOCC1` [NIMORAZOLE]: the values for the minimal effective dose with Entamoeba histolytica [1] and with Entamoeba histolytica [2] were 100 mg/kg and 20 mg/kg, respectively.

With `CN(C)/C=N/c1ccc2c(c1)C(=O)c1ccc(/N=C/N(C)C)cc1C2=O`, the Activity entry with Syrian golden hamster [7], with Syrian golden hamster [8], with Rattus norvegicus [9] and with Rattus norvegicus [10] was “Toxic” each time. Further, the minimal effective dose was found to be 10 mg/kg with Entamoeba histolytica [1] and 20 mg/kg in the data set with Entamoeba histolytica [2].

For `CC(C)C/C(=N\c1ccc2c(c1)C(=O)c1ccc(/N=C(\CC(C)C)N(C)C)cc1C2=O)N(C)C`, the minimal effective dose in the data set with Entamoeba histolytica [1] came out at 50 mg/kg; in the data set on Entamoeba histolytica [2] it was 20 mg/kg.

Turning to `CC/C(N)=N\c1ccc2c(c1)C(=O)c1ccc(/N=C(/N)CC)cc1C2=O`, the Activity entry in the data set on Rattus norvegicus [3], in the data set with Rattus norvegicus [4], in the data set with Syrian golden hamster [5] and in the data set on Syrian golden hamster [6] was “Non-toxic” each time. For the same compound, the outcome in the data set on Entamoeba histolytica [1] and with Entamoeba histolytica [2] was inactive.

On to `CN(C)/C=N\c1ccc(/N=C\N(C)C)c2c1C(=O)c1ccccc1C2=O`, for which the result in the data set with Entamoeba histolytica [1] and in the data set with Entamoeba histolytica [2] was inactive.

`CC/C(=N\c1ccc2c(c1)C(=O)c1ccc(/N=C(\CC)N3CCCCC3)cc1C2=O)N1CCCCC1`: the Activity result with Rattus norvegicus [3], with Rattus norvegicus [4], in the data set on Syrian golden hamster [5] and in the data set with Syrian golden hamster [6] was “Non-toxic” throughout. Also, the outcome with Entamoeba histolytica [1] was inactive. Moreover, the minimal effective dose in the data set with Entamoeba histolytica [2] was determined as 50 mg/kg.
